A word on the MIC: it is the smallest concentration in the dilution series that meets the test's criterion for growth inhibition.

Test [1] relates to S. carnosus TM300. The test is described as follows: MIC determination in 96-well microtiter plate. The test is classed as cell-based, Staphylococcus carnosus. The settings on record: BHI, 37°C, 10^5 CFU/mL, OD600 after 18 h. Here is the method:
MIC determination was performed in a 96-well microtiter plate as described previously ([Wu et al., 2019]). Sensitive bacterial culture was grown in the appropriate medium (BHI for S. carnosus; LB for B. subtilis) at 37°C overnight. The culture was diluted to 10^5 CFU/mL in medium in each well. Epilancin 15X or its analog was dissolved in water and serially diluted to obtain final concentrations of 20, 10, 5, 2.5, 1.25, 0.625, 0.3125, 0.156, 0.078, 0.039, 0.019, and 0.009 μM. OD600 readings were obtained after 18 h using a Synergy H4 Hybrid Multi-Mode Microplate Reader (BioTeK). Cell-free untreated medium, and untreated cell culture were used as negative controls. The MIC of nisin against B. subtilis BSF2470 was determined following the same methods.

Test [2] concerns S. carnosus TM300. The test is described as follows: Membrane permeability study with propidium iodide (flow cytometry). Conditions: S. carnosus TM300, 20 min exposure, 0.5x, 1x, 4x MIC, n = 3. It is filed as cell-based, Staphylococcus carnosus. The protocol:
Cultures of S. carnosus TM300 and B. subtilis BSF2470 were grown to OD600 1.0 and diluted to OD600 0.1 in fresh BHI or LB medium, respectively. The culture was then combined with a final concentration of 25 μM PI (ThermoFisher P3566), 1 mM HEPES, and 1 mM glucose. […] Another two tubes were prepared without antibiotic treatment as controls. The culture was analyzed with a BD Biosciences LSR II flow cytometer for S. carnosus and a BD Biosciences LSRFortessa for B. subtilis using excitation at 488 nm with an argon laser and measurement of emission through a band-pass filter at 695/40 nm. A minimum of 30,000 events were detected for each sample. The experiment was repeated three times, and the mean PI uptake value was determined. The results were calibrated such that the mean PI uptake from the 4x MIC nisin-treated cell culture was set as 100% PI uptake.
Background: Flow cytometry measures light scatter and fluorescence of single cells or particles in a stream.

Test [3] deals with S. carnosus TM300. The test is described as follows: Bright field (Airyscan) microscopy. It is filed as cell-based, Staphylococcus carnosus. Conditions: S. carnosus TM300, 0.5 MIC.
Test [4] can be described thus: Liposome permeabilization (sulforhodamine B dye leakage) assay. It is filed as biochemical. Here is the method: For unilamellar liposome preparation, a total of 100 μL of 30 mM 1,2-dioleoyl-sn-glycero-3-phosphocholine (DOPC; Avanti Polar Lipids) and the following lipids dissolved in chloroform were mixed in a glass tube in the appropriate ratio: POPG (Avanti Polar Lipids), POPE (Avanti Polar Lipids), POPS (Avanti Polar Lipids), and purified S. aureus LTA (InvivoGen, catalog # tlrl-pslta). The solvent was evaporated under a stream of nitrogen gas and the glass vial was placed in a vacuum desiccator overnight. A total of 1 mL HEPES-Buffered Saline (HBS) composed of 5 mM HEPES (pH 7.6) and 150 mM NaCl, and 30 mM sulforhodamine B (SRB) was added to each vial. The lipid solution was vortexed for 10 min and lipids were hydrated by five freeze–thaw cycles with liquid N2. The lipid solution was diluted with HBS buffer to 3 mL and the solution was passed 29 times through a mini extruder (Avanti Polar Lipids) with a filter of […] pore diameter to form lipid vesicles of homogeneous size. The extruded solution was passed through Sephadex 50 resin to remove the free sulforhodamine B (liposomes eluted faster than the dye). The size of the liposomes was tested using dynamic light scattering (DLS, Malvern Zetasizer, Dr. Catherine J. Murphy lab, Department of Chemistry, UIUC) and analyzed using Zetasizer software. The DLS data quality was interpreted by the instrument through its embedded algorithm to confirm the data quality. The polydispersity index (PDI), which measures the size distributions was used to monitor the quality of the liposomes. The small PDI indices obtained from DLS readings indicate that the liposomes were monodisperse ([Farkas and Kramar, 2021]). The total lipid concentration was measured with NMR spectroscopy using a reported method ([Hein et al., 2016]). The vesicles were stored at 4°C and used within 1–2 days.
For the dye leakage assay, 100 μL SRB-loaded liposomes (80 μM lipid; 100–200 nm size) were placed in each well in a 96-well microplate. Fluorescence of SRB-loaded liposomes was monitored over time on a Synergy H4 Hybrid Multi-Mode Microplate Reader (BioTeK) using λEx at […]. To each well, a different concentration of peptides or 0.02% triton X-100 was added 5 min after adding liposomes. Liposomes supplied with water were treated as the negative control. The fluorescence emission was measured every 15 s for 2 h. Fluorescence counts were recorded as % leakage and plotted as a function of time. The concentration of epilancin 15X where the SRB leaked from the liposomes reached half of the triton X-100 leakage was recorded as C1/2, and C1/2 values were plotted against DOPC and supplemented lipid concentrations.
In general terms: The SRB assay estimates cell density from bound dye.

For the next test, the system named is Bacillus megaterium. Conditions: ref Wang et al., 2023; cited from earlier work. The source says: (§1) Recent studies have shown that epilancin 15X activity varies depending on the indicator strain, with bacteriostatic activity against Staphylococcus simulans and Micrococcus flavus but bactericidal activity against Bacillus megaterium ([Wang et al., 2023]).
For the next test, the system named is Micrococcus flavus. Conditions: ref Wang et al., 2023; cited from earlier work.
From the text: as §1

A further test relates to Staphylococcus simulans. The settings on record: ref Wang et al., 2023; cited from earlier work.
From the text: as §1

Consider Epilancin 15X, for which the MIC in the test on S. carnosus TM300 [1] stood at 0.16 µM. Besides, in the test with S. carnosus TM300 [2], the “PI uptake (membrane disruption)” value is “increase”. Moreover, the “aggregation phenotype of cells (brightfield)” value in the test with S. carnosus TM300 [3] was “Aggregation and chaining of cells was observed”. The EC50 in test [4] (DOPC liposomes supplemented with POPE, highest concentration tested 64 µM, read-out: C1/2 (concentration giving 50% of triton X-100 leakage)) was greater than 64 µM. The “fluorescence emission from SRB dye leakage” value in test [4] (DOPC liposomes with negatively charged lipids LTA, POPS, POPG) is “increased”. In addition, the “SRB dye leakage from DOPC liposomes” value in test [4] (DOPC only, 80 μM lipid, epilancin 15X up to 64 μM, fluorescence over 2 h) is on record as “not detected”. Further, in test [4] (negatively charged lipids S. aureus LTA, POPG, POPS), the “C1/2 values as a function of supplemented lipid concentration” value is on record as “negative slope”. Moreover, the “SRB dye leakage from DOPC liposomes doped with POPE” value in test [4] (neutral lipid POPE) is recorded as “not detected”. Moreover, the “liposome leakage as a function of supplemented lipid concentration” value in test [4] (neutral lipids POPC and POPE) is “no change in liposome leakage”. For the same substance, the “type of antimicrobial activity” value in the test with Bacillus megaterium is “bactericidal”; with Micrococcus flavus, “bacteriostatic”; in the test on Staphylococcus simulans it was “bacteriostatic”.

The values are drawn from article PMC10652874, “Investigation into the mechanism of action of the antimicrobial peptide epilancin 15X” (Frontiers in Microbiology, 2023).
